Reference: US10946074B2, “GLP-1 derivatives and uses thereof” (Novo Nordisk A/S, priority 2016, dated 2021)

Biological target: T1, DPP-IV (Homo sapiens, UniProt P27487)
T1 construct: purchased R & D systems
Experiment: In vitro DPP-IV stability (incubation with DPP-IV, LC-MS of non-degraded peptide)
Format: in vitro ADME
Conditions: 10 μM peptide, DPP-IV 2 μg/ml, 37° C., samples up to 180 min
Experimental: The peptides are incubated in vitro in buffer with DPP-IV, samples are taken at regular intervals, the DPP-IV enzyme is inactivated to stop further degradation, and the amount of non-degraded peptide in the samples is determined using LC-MS.
Buffer A is a HEPES buffer (Gibco by Life Science, NY, USA) to which 0.005% (v/v) Tween20® Sigma-Aldrich, USA) and 0.001% (w/v) BSA (Sigma-Aldrich, USA) has been added and pH was adjusted to 7.4.
LC-MS was performed on a setup consisting of Waters Acquity UPLC system and Maxis 4G from Bruker Daltonics. […] Gradient: Linear 5%-70% mobile phase B during 8 min at 0.3 ml/min. MS was conducted in positive ionisation mode by electrospray ionisation from m/z ionisation mode and scan from m/z 300-1800.
The reactions were terminated by addition of 6 volumes of ethanol containing 1% (v/v) TFA (Biosolve BV, The Netherlands) and internal standard. The samples were analysed by LC-MS for the respective non-degraded peptide. Data was plotted according to 1st order kinetics (by GraphPad Prism) and the half-lives (T1/2) were calculated by the software and reported in minutes.

T1 sequence (P27487 whole entry, species assumed): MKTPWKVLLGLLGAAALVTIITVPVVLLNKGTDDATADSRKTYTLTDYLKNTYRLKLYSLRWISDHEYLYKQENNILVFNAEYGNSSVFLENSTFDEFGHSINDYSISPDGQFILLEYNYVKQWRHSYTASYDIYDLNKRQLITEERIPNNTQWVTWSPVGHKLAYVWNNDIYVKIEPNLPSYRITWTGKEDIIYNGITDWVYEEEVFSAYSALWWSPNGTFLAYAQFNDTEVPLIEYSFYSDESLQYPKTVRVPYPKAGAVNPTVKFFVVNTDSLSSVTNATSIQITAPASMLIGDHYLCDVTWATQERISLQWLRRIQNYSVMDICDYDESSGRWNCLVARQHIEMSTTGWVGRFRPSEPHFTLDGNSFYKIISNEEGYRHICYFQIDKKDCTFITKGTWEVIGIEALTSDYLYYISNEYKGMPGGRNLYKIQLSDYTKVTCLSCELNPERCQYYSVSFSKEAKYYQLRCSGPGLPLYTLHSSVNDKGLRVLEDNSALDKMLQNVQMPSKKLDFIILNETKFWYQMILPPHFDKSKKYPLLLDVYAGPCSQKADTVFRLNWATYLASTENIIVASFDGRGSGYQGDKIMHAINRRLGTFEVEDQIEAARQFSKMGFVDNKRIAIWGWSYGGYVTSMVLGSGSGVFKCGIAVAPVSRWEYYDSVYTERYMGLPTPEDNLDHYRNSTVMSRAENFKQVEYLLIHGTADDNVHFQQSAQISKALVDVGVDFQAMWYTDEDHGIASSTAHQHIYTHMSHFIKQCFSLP

## CC[C@H](C)[C@H](NC(=O)[C@H](Cc1ccccc1)NC(=O)[C@H](CCC(=O)O)NC(=O)[C@H](CCCCN)NC(=O)[C@H](C)NC(=O)[C@H](C)NC(=O)[C@H](CCC(N)=O)NC(=O)CNC(=O)[C@H](CCC(=O)O)NC(=O)[C@H](CC(C)C)NC(=O)[C@H](Cc1ccc(O)cc1)NC(=O)[C@H](CO)NC(=O)[C@H](CO)NC(=O)[C@@H](NC(=O)[C@H](CC(=O)O)NC(=O)[C@H](CO)NC(=O)[C@@H](NC(=O)[C@H](Cc1ccccc1)NC(=O)[C@@H](NC(=O)CNC(=O)[C@H](CCC(=O)O)NC(=O)[C@H](Cc1c[nH]c2ccccc12)NC(=O)[C@@H](N)Cc1c[nH]cn1)[C@@H](C)O)[C@@H](C)O)C(C)C)C(=O)N[C@@H](C)C(=O)N[C@@H](Cc1c[nH]c2ccccc12)C(=O)N[C@@H](CC(C)C)C(=O)N[C@H](C(=O)N[C@@H](CCCCN)C(=O)NCC(=O)N[C@@H](CCCNC(=N)N)C(=O)NCC(=O)O)C(C)C [Example D, [Trp8]-GLP-1-(7-37)-Peptide]
  degradation by DPP-IV in vitro (in words): no degradation at all was observed
